According to a melting point compilation (Tetko et al.; mined from patent text by program, amines drawn as free bases though some values may be those of a salt):

| Structure (SMILES) | melting point |
| --- | --- |
| CC(=O)Nc1c(C#N)c(C#N)nn1-c1c(Cl)cc(C(F)(F)F)cc1Cl | 208 to 209 °C |
| COc1ccc2oc(C(=O)c3cc(F)ccc3F)cc2c1 | 75 to 78 °C |
| CC(=O)c1ccc(Oc2ccc(F)cc2F)c(NS(C)(=O)=O)c1 | 142 to 143 °C |
| CCON=C(C(=O)OCC)c1csc(N)n1 | 129 °C |
| CN1C(=O)c2cccnc2N(C)c2nc(-c3ccc[nH]3)ccc21 | 158 to 160 °C |
| COc1ccc2c(c1)CCC1=C2CCCN1C(C)=O | 119 to 120 °C |
| COc1c(Cl)cc(F)c(-n2ncc(C(F)(F)F)cc2=O)c1N | 156 to 157 °C |
| COC(=O)c1c(F)cc(O)cc1F | 178 to 180 °C |
| CSC(=C[N+](=O)[O-])NCCSCc1ncccc1Cl | 80 to 82.5 °C |
| c1ccc(CN(c2ccccc2)c2ccc(N(Cc3ccccc3)c3ccccc3)cc2)cc1 | 149 to 151 °C |
| COc1ccccc1-c1cc(NC(=O)C2CCNCC2)ncn1 | 279 to 280 °C |
| CCOC(=O)c1cn(-c2ccc(F)cc2F)c2nc(SCC)c(F)cc2c1=O | 170 to 171 °C |
| CCC(=O)N(C)c1cccc(-c2ccc3nnc(C)n3n2)c1 | 150 to 152 °C |
| COc1c(S(N)(=O)=O)cccc1S(=O)(=O)NC(=O)Nc1nc(C)cc(C)n1 | 218 °C |
| COc1ccc(C(=O)Oc2ccc(C(=O)OCc3ccccc3)c(O)c2)cc1C12CC3CC(CC(C3)C1)C2 | 171 to 172 °C |
| O=C1c2cc(F)ccc2-n2c1nc1ccc(F)cc1c2=O | 295 to 296 °C |
| COc1c2c(c(OC)c(OC)c1OC)CC(CCCCOc1ccc(C(=O)N(C)C)cc1)C2 | 99 to 102 °C |
| O=C(C(c1ccc(Cl)cc1)c1c(Cl)cc(-n2ncc(=O)[nH]c2=O)cc1Cl)N1CCCCC1 (stereo not drawn) | 217 °C |
| COc1cc(Nc2nccc(-c3ccc(N4CCCCC4CO)nc3)n2)cc(OC)c1OC (stereo not drawn) | 93 °C |
| CCCOc1ccc2c(c1)[C@@H](c1ccc(OC)cc1OCCO)[C@@H](C(=O)OC)[C@H]2c1ccc2c(c1)OCO2 (racemic) | 165 to 168 °C |
| NC(=O)c1cccc(-c2cccc3cc(Cc4cc(F)cc(C(F)(F)F)c4)sc23)c1 | 147 to 148 °C |
| Fc1ccc([C@H]2CC[C@H](N3CCN(Cc4ccc5ccccc5n4)CC3)CC2)cc1 | 160 to 162 °C |
| COc1cc(C)nc(NC(=O)NS(=O)(=O)c2c(C)nsc2OCC(F)(F)F)n1 | 159 to 161 °C |
| CCCC(c1ccc(NC(C)=O)cc1)n1ccnc1 (stereo not drawn) | 186 °C |
| Cc1ccc(S(=O)(=O)N2Cc3cscc3C2)cc1 | 125 to 127 °C |

| Structure (SMILES) | melting point |
| --- | --- |
| CCOC(=O)C1=C(COCCOCCN)NC(C)=C(C(=O)OC)C1c1cccc(Cl)c1Cl (single isomer, unassigned; (-)) | 69 to 71 °C |
| CCCCCCCCCCCCCCCCCCSSSSCCCCCCCCCCCCCCCCCC | 44 to 45 °C |
| COc1cc(Cl)c(N=C2NCCN2O)c(Cl)c1 | 199 to 201 °C |
| CNC(=O)c1cc(NCc2c(C)cccc2C)c2nc(C)[nH]c2c1 | 298 °C |
| O[C@H]1[C@H](O)CS[C@H]1n1cnc2c(Cl)nc(Cl)nc21 | 198 to 200 °C |
| CC(C)(C)OC(=O)NCCOc1noc2ccccc12 | 106 to 107 °C |
| O=[N+]([O-])c1ccc(Oc2cccc3c(Oc4ccc([N+](=O)[O-])c(O)c4)cccc23)cc1O | 238 to 241 °C |
| Cc1nc(O)c([N+](=O)[O-])c(N2CCc3ccccc3CC2)n1 | > 200 °C |
| CC(C)(C)OC(=O)C(N)C1NC(C(=O)OCc2ccccc2)C2(CCN(Cc3ccccc3)CC2)S1 (stereo not drawn) | 140 to 141 °C |
| N[C@@H](COc1cccc(Cl)n1)c1ccccc1 | 56 to 57 °C |
| CC(NC(=O)N(Cc1csc(C(C)C)n1)C1CC1)C(=O)NC(Cc1ccccc1)CC(O)C(Cc1ccccc1)NC(=O)OCc1cncs1 (stereo not drawn) | 65 to 67 °C |
| Cc1cc(C)cc(OCC(=O)c2ccccc2)c1 | 104 to 105 °C |
| O=C1c2cc(-c3ccccc3)ccc2-c2c1c1ccc([N+](=O)[O-])cc1c(=O)n2CCCNS(=O)(=O)c1ccccc1 | 246 to 247 °C |
| CCCCn1nc(C)c(CO)c1Cc1ccc(-c2ccccc2-c2nnn[nH]2)cc1 | 120 to 126 °C |
| Cc1c(Cl)nn(C(C)(C)C(=O)N(C)C)c1-c1ccccc1 | 134 to 136 °C |
| COC(=O)CCCc1cc2nc(C(F)(F)F)ccc2n1S(=O)(=O)c1ccc(C(C)C)cc1 | 78 °C |
| O=c1[nH]c2ccccc2c2cc(CC(=S)N3CCOCC3)nn12 | 273 to 275 °C |
| CCCN(C(C)C)[C@H]1COc2cccc(C(N)=O)c2C1 | 121 to 122 °C |
| Nc1ccc(N2CCOCC2)c(C(F)(F)F)c1 | 149 to 151 °C |
| COC1OCC[C@@H]1NC(=O)CN(CC(C)C)C(=O)CNC(=O)COc1ccc2c(c1)Nc1ccccc1S2 (stereo partly drawn) | 162 to 164 °C |
| COc1cc(NOC(C)=O)c(Cl)c(OC)c1 | 117 to 118 °C |
| Cc1ccc(Nc2nc(-c3ccccc3)c(-c3nc4ccccc4c(=O)n3-c3ccc(Cl)cc3)s2)cc1 | 225 to 227 °C |
| CCOC(=O)/C=C/c1c(-c2ccccc2)c2ccccc2c(=O)n1C | 163 to 165 °C |
| COc1cc2c(cc1OC)CC(=O)N(CCCN(C)C[C@H]1Cc3cc(OC)c(OC)cc31)CC2 | 98 to 100 °C |
| COc1cc2c(cc1C=O)C(C)(C)C(=O)N2C | 192 to 194 °C |

| Structure (SMILES) | melting point |
| --- | --- |
| COc1ccc(N=C(CCc2ccccc2Cl)c2ccccc2)cc1 | 83.5 to 84.5 °C |
| COc1cc(OC)nc(NC(=O)NS(=O)(=O)c2ccccc2C2=NOCCO2)n1 | 189 °C |
| Cc1c(NC(=O)c2ccc(C(C)(C)C)cc2)cccc1-c1cn(C)c(=O)c(Nc2ccc(C(C(=O)O)N(C)C(C)C)cc2)n1 (stereo not drawn) | 197 to 198 °C |
| CC(=N)NS(=O)(=O)C=Cc1ccc(Cl)cc1 | 161 to 163 °C |
| c1c(N2CCCC2)nc(N2CCNCC2)nc1N1CCCC1 | 152 to 160 °C |
| N#Cc1nn(-c2c(Cl)cc(C(F)(F)F)cc2Cl)cc1OC(F)(F)C(F)Cl (racemic) | 99 to 101 °C |
| COc1ccc(C(=O)O)c([N+](=O)[O-])c1 | 193 to 195 °C |
| CC(C)(C)C(=O)CN1C(=O)C(NC(=O)Nc2ccccc2)CN(C2CCCCC2)c2ccccc21 (stereo not drawn) | 247 to 251 °C |
| Cc1sc(-c2ccc(Br)cc2)nc1O | 206 to 207 °C |
| COc1ccccc1C(=O)Nc1nc(-c2ccccc2)c(-c2ccc(=O)n(C(C)C)n2)s1 | > 250 °C |
| C=CC(=O)N1Cc2ccccc2SC(Cl)C1 (stereo not drawn) | 66 to 68 °C |
| NC(=O)N(O)Cc1ccc(Sc2ccc(Cl)cc2)s1 | 158 to 160 °C |
| CCN1C[C@H](CN2CCN(C(c3ccccc3)c3ccccc3)CC2)C[C@@H]2c3cccc4[nH]cc(c34)C[C@H]21 | 203 to 205 °C |
| Cc1nn(C)c(NC(=O)Nc2ccccc2)c1C1=CCCCC1 | 203 °C |
| N#Cc1ccc2nc(-c3ccc(Br)cc3)cn2c1 | 262 to 264 °C |
| O=CNc1nc(C(=NOCC(=O)OC(c2ccccc2)c2ccccc2)C(=O)O)cs1 | 143 to 151 °C |
| CCOC(=O)C1(c2ccccc2)CCN(C2CCC(C#N)(c3ccc(F)cc3C)CC2)CC1 (stereo not drawn) | 135 °C |
| Fc1ccc([C@@]2(Cn3nc[nH]c3=S)O[C@@H]2c2ccccc2F)c(F)c1 (relative stereo) | 144 to 148 °C |
| Cc1cc(CC(C)(C)C=O)cc(C)c1O | 72 to 73 °C |
| O=C1CCc2cccc(Oc3ccccc3Cl)c2O1 | 123 to 125 °C |
| O=C1C2=C(SCCO2)C(=O)N1c1ccc2ccc(Cl)nc2n1 | 264 °C |
| CCCCc1c(Cl)nc(N)nc1-c1ccccc1 | 183 to 185 °C |
| O=C1CC2(CN1)CC(=O)c1cc(F)ccc12 (stereo not drawn) | 198 to 202 °C |
| CCCCCCCCS(=O)c1ccc(CC(COC(C)=O)(COC(C)=O)NC(C)=O)cc1 (stereo not drawn) | 70 to 72 °C |
| C=CCSC(Cc1ccc(Cl)cc1Cl)n1ccnc1 (stereo not drawn) | 97 to 102 °C |

| Structure (SMILES) | melting point |
| --- | --- |
| Nc1nc(Cl)c2ncn(OCCOCP(=O)(O)O)c2n1 | 190 to 195 °C |
| CC(=O)N1CCSc2ccccc2C1 | 69 to 70 °C |
| COC(=O)c1nc(C)c2[nH]c3ccccc3c2c1I | 280 to 286 °C |
| O=C1c2ccccc2C(=O)N1CC(=O)N1c2ccccc2N(Cc2ccccc2)C(=O)C(Cc2ccccc2)C1c1ccccc1 (stereo not drawn) | 255 to 256 °C |
| Cc1ccc(-c2cccc(-c3nc(C(C)C)[nH]c3-c3cccc(C)n3)c2)cc1 | 76 to 79 °C |
| COCCC(=O)c1cc2c(=O)n(NS(C)(=O)=O)c(=O)[nH]c2cc1C(F)(F)F | 186 to 191 °C |
| N#Cc1ccccc1C(=O)c1ccccc1O | 100 °C |
| CCCCOC(=O)c1c(Cn2ccnc2)nc2cc(OC)c(OC)cc2c1-c1ccc(OC)c(OC)c1 | 140 to 141 °C |
| CCCCNC(=O)c1ccc(S(=O)(=O)CCCn2c(CCC)nc3c(N)nc(C)c(C)c32)cc1 | 147 to 149 °C |
| CN1C(=O)CCN(c2ccc(Cl)cc2Cl)C1=O | 154 to 157 °C |
| CC(=O)Oc1cc(OCC(=O)c2ccc3c(c2)C(C)(C)CCC3(C)C)ccc1C(=O)OCc1ccccc1 | 137 to 138 °C |
| O=C(c1ccc(-c2ccc(OCCCN3CCCCC3)cc2)cc1)N1CCCCC1 | 122 °C |
| CCn1nc2c(n1)C(N1CCN(C)CC1)=Nc1cc(Cl)ccc1N2 | 180 to 182 °C |
| O=C(NCCc1ccc(O)cc1)c1ccc2n1Cc1ccccc1N(C(=O)CSc1ccc(Br)cc1)C2 | 168 to 169 °C |
| CN(C)C(=O)COC(=O)c1cc(-c2ccccc2)c(=O)n2c1-c1ccccc1C2 | 177 to 179 °C |
| Cc1cc(Br)c2c(c1)N(S(=O)(=O)c1ccc(Cl)cc1)CCO2 | 143 to 145 °C |
| O=C(Nc1ccc(CCc2ccc(O)c(O)c2)cc1)C(=O)c1sc2ccccc2c1O | 193 to 195 °C |
| CC(C)(C)c1cc(-c2nnc(NC#N)s2)cc(C(C)(C)C)c1O | > 250 °C |
| CCOC(=O)c1c[nH]nc1OC(C)C | 55 to 56 °C |
| CCOC(=O)CCCOc1ccc(C(N)=O)c(OCC2CCCCC2)c1 | 98 to 99 °C |
| COC(=O)c1nc(Cl)c(F)c(N)c1SC | 75 to 77 °C |
| CSc1ccc(Br)c2c1C1=NOCC1C2 (stereo not drawn) | 127 to 135 °C |
| CCCCCCOc1ccc(C=[N+]([O-])C(C)(C)C)cc1OCC | 35.5 °C |
